± gives the expanded uncertainty stated by the source.
Assay: xn = mol fraction of the nth substance listed
Details: for surface tension liquid-gas: Ring tensiometer; for mass density: 101 kPa, Liquid

CC#N [acetonitrile] + CCCO
surface tension liquid-gas (278.15 K, x1 = 0.1255): 25.2 ± 0.4 mN/m
surface tension liquid-gas (278.15 K, x1 = 0.2452): 25.4 ± 0.4 mN/m
surface tension liquid-gas (278.15 K, x1 = 0.3466): 25.8 ± 0.4 mN/m
surface tension liquid-gas (278.15 K, x1 = 0.4995): 26.5 ± 0.4 mN/m
surface tension liquid-gas (278.15 K, x1 = 0.6449): 27.4 ± 0.4 mN/m
surface tension liquid-gas (278.15 K, x1 = 0.7492): 28.1 ± 0.4 mN/m
surface tension liquid-gas (278.15 K, x1 = 0.8645): 29.1 ± 0.5 mN/m
surface tension liquid-gas (278.15 K, x1 = 0.9101): 29.5 ± 0.5 mN/m
surface tension liquid-gas (278.15 K, x1 = 1): 30.5 ± 0.5 mN/m
mass density (278.15 K, x1 = 0.1255): 813.41 ± 1.8 kg/m3
mass density (278.15 K, x1 = 0.2452): 810.66 ± 1.8 kg/m3
mass density (278.15 K, x1 = 0.3466): 808.33 ± 1.8 kg/m3
mass density (278.15 K, x1 = 0.4995): 804.81 ± 1.9 kg/m3
mass density (278.15 K, x1 = 0.6449): 801.47 ± 1.9 kg/m3
mass density (278.15 K, x1 = 0.7492): 799.07 ± 1.9 kg/m3
mass density (278.15 K, x1 = 0.8645): 796.42 ± 1.9 kg/m3
mass density (278.15 K, x1 = 0.9101): 795.37 ± 1.9 kg/m3
mass density (278.15 K, x1 = 1): 793.3 ± 1.9 kg/m3
surface tension liquid-gas (283.15 K, x1 = 0.1255): 24.8 ± 0.4 mN/m
surface tension liquid-gas (283.15 K, x1 = 0.2452): 25 ± 0.4 mN/m
surface tension liquid-gas (283.15 K, x1 = 0.3466): 25.4 ± 0.4 mN/m
surface tension liquid-gas (283.15 K, x1 = 0.4995): 26.1 ± 0.4 mN/m
surface tension liquid-gas (283.15 K, x1 = 0.6449): 27 ± 0.4 mN/m
surface tension liquid-gas (283.15 K, x1 = 0.7492): 27.7 ± 0.4 mN/m
surface tension liquid-gas (283.15 K, x1 = 0.8645): 28.7 ± 0.5 mN/m
surface tension liquid-gas (283.15 K, x1 = 0.9101): 29.1 ± 0.5 mN/m
surface tension liquid-gas (283.15 K, x1 = 1): 30.1 ± 0.5 mN/m
mass density (283.15 K, x1 = 0.1255): 809.44 ± 1.8 kg/m3
mass density (283.15 K, x1 = 0.2452): 806.61 ± 1.8 kg/m3
mass density (283.15 K, x1 = 0.3466): 804.22 ± 1.9 kg/m3
mass density (283.15 K, x1 = 0.4995): 800.61 ± 1.9 kg/m3
mass density (283.15 K, x1 = 0.6449): 797.18 ± 1.9 kg/m3
mass density (283.15 K, x1 = 0.7492): 794.72 ± 1.9 kg/m3
mass density (283.15 K, x1 = 0.8645): 792 ± 1.9 kg/m3
mass density (283.15 K, x1 = 0.9101): 790.92 ± 1.9 kg/m3
mass density (283.15 K, x1 = 1): 788.8 ± 1.9 kg/m3
surface tension liquid-gas (288.15 K, x1 = 0.1255): 24.4 ± 0.4 mN/m
surface tension liquid-gas (288.15 K, x1 = 0.2452): 24.7 ± 0.4 mN/m
surface tension liquid-gas (288.15 K, x1 = 0.3466): 25 ± 0.4 mN/m
surface tension liquid-gas (288.15 K, x1 = 0.4995): 25.7 ± 0.4 mN/m
surface tension liquid-gas (288.15 K, x1 = 0.6449): 26.6 ± 0.4 mN/m
surface tension liquid-gas (288.15 K, x1 = 0.7492): 27.3 ± 0.4 mN/m
surface tension liquid-gas (288.15 K, x1 = 0.8645): 28.3 ± 0.4 mN/m
surface tension liquid-gas (288.15 K, x1 = 0.9101): 28.7 ± 0.5 mN/m
surface tension liquid-gas (288.15 K, x1 = 1): 29.7 ± 0.5 mN/m
mass density (288.15 K, x1 = 0.1255): 805.55 ± 1.8 kg/m3
mass density (288.15 K, x1 = 0.2452): 802.64 ± 1.9 kg/m3
mass density (288.15 K, x1 = 0.3466): 800.18 ± 1.9 kg/m3
mass density (288.15 K, x1 = 0.4995): 796.46 ± 1.9 kg/m3
mass density (288.15 K, x1 = 0.6449): 792.93 ± 1.9 kg/m3
mass density (288.15 K, x1 = 0.7492): 790.39 ± 1.9 kg/m3
mass density (288.15 K, x1 = 0.8645): 787.59 ± 1.9 kg/m3
mass density (288.15 K, x1 = 0.9101): 786.48 ± 2 kg/m3
mass density (288.15 K, x1 = 1): 784.3 ± 2 kg/m3
surface tension liquid-gas (293.15 K, x1 = 0.1255): 24 ± 0.4 mN/m
surface tension liquid-gas (293.15 K, x1 = 0.2452): 24.3 ± 0.4 mN/m
surface tension liquid-gas (293.15 K, x1 = 0.3466): 24.6 ± 0.4 mN/m
surface tension liquid-gas (293.15 K, x1 = 0.4995): 25.3 ± 0.4 mN/m
surface tension liquid-gas (293.15 K, x1 = 0.6449): 26.2 ± 0.4 mN/m
surface tension liquid-gas (293.15 K, x1 = 0.7492): 26.9 ± 0.4 mN/m
surface tension liquid-gas (293.15 K, x1 = 0.8645): 27.9 ± 0.4 mN/m
surface tension liquid-gas (293.15 K, x1 = 0.9101): 28.3 ± 0.4 mN/m
surface tension liquid-gas (293.15 K, x1 = 1): 29.3 ± 0.5 mN/m
mass density (293.15 K, x1 = 0.1255): 799.41 ± 1.9 kg/m3
mass density (293.15 K, x1 = 0.2452): 796.56 ± 1.9 kg/m3
mass density (293.15 K, x1 = 0.3466): 794.15 ± 1.9 kg/m3
mass density (293.15 K, x1 = 0.4995): 790.51 ± 1.9 kg/m3
mass density (293.15 K, x1 = 0.6449): 787.05 ± 1.9 kg/m3
mass density (293.15 K, x1 = 0.7492): 784.57 ± 2 kg/m3
mass density (293.15 K, x1 = 0.8645): 781.82 ± 2 kg/m3
mass density (293.15 K, x1 = 0.9101): 780.74 ± 2 kg/m3
mass density (293.15 K, x1 = 1): 778.3 ± 2 kg/m3
surface tension liquid-gas (298.15 K, x1 = 0.1255): 23.6 ± 0.4 mN/m
surface tension liquid-gas (298.15 K, x1 = 0.2452): 23.9 ± 0.4 mN/m
surface tension liquid-gas (298.15 K, x1 = 0.3466): 24.2 ± 0.4 mN/m
surface tension liquid-gas (298.15 K, x1 = 0.4995): 24.9 ± 0.4 mN/m
surface tension liquid-gas (298.15 K, x1 = 0.6449): 25.8 ± 0.4 mN/m
surface tension liquid-gas (298.15 K, x1 = 0.7492): 26.6 ± 0.4 mN/m
surface tension liquid-gas (298.15 K, x1 = 0.8645): 27.5 ± 0.4 mN/m
surface tension liquid-gas (298.15 K, x1 = 0.9101): 27.9 ± 0.4 mN/m
surface tension liquid-gas (298.15 K, x1 = 1): 28.9 ± 0.5 mN/m
mass density (298.15 K, x1 = 0.1255): 796.74 ± 1.9 kg/m3
mass density (298.15 K, x1 = 0.2452): 794.01 ± 1.9 kg/m3
mass density (298.15 K, x1 = 0.3466): 791.7 ± 1.9 kg/m3
mass density (298.15 K, x1 = 0.4995): 788.21 ± 1.9 kg/m3
mass density (298.15 K, x1 = 0.6449): 784.9 ± 2 kg/m3
mass density (298.15 K, x1 = 0.7492): 782.52 ± 2 kg/m3
mass density (298.15 K, x1 = 0.8645): 779.89 ± 2 kg/m3
mass density (298.15 K, x1 = 0.9101): 778.85 ± 2 kg/m3
mass density (298.15 K, x1 = 1): 776.75 ± 2 kg/m3
surface tension liquid-gas (303.15 K, x1 = 0.1255): 23.2 ± 0.4 mN/m
surface tension liquid-gas (303.15 K, x1 = 0.2452): 23.5 ± 0.4 mN/m
surface tension liquid-gas (303.15 K, x1 = 0.3466): 23.8 ± 0.4 mN/m
surface tension liquid-gas (303.15 K, x1 = 0.4995): 24.5 ± 0.4 mN/m
surface tension liquid-gas (303.15 K, x1 = 0.6449): 25.4 ± 0.4 mN/m
surface tension liquid-gas (303.15 K, x1 = 0.7492): 26.2 ± 0.4 mN/m
surface tension liquid-gas (303.15 K, x1 = 0.8645): 27.1 ± 0.4 mN/m
surface tension liquid-gas (303.15 K, x1 = 0.9101): 27.5 ± 0.4 mN/m
surface tension liquid-gas (303.15 K, x1 = 1): 28.5 ± 0.4 mN/m
mass density (303.15 K, x1 = 0.1255): 792.49 ± 1.9 kg/m3
mass density (303.15 K, x1 = 0.2452): 789.62 ± 1.9 kg/m3
mass density (303.15 K, x1 = 0.3466): 787.18 ± 1.9 kg/m3
mass density (303.15 K, x1 = 0.4995): 783.51 ± 2 kg/m3
mass density (303.15 K, x1 = 0.6449): 780.02 ± 2 kg/m3
mass density (303.15 K, x1 = 0.7492): 777.52 ± 2 kg/m3
mass density (303.15 K, x1 = 0.8645): 774.75 ± 2 kg/m3
mass density (303.15 K, x1 = 0.9101): 773.66 ± 2 kg/m3
mass density (303.15 K, x1 = 1): 771.5 ± 2 kg/m3
surface tension liquid-gas (308.15 K, x1 = 0.1255): 22.8 ± 0.4 mN/m
surface tension liquid-gas (308.15 K, x1 = 0.2452): 23.1 ± 0.4 mN/m
surface tension liquid-gas (308.15 K, x1 = 0.3466): 23.4 ± 0.4 mN/m
surface tension liquid-gas (308.15 K, x1 = 0.4995): 24.2 ± 0.4 mN/m
surface tension liquid-gas (308.15 K, x1 = 0.6449): 25 ± 0.4 mN/m
surface tension liquid-gas (308.15 K, x1 = 0.7492): 25.8 ± 0.4 mN/m
surface tension liquid-gas (308.15 K, x1 = 0.8645): 26.7 ± 0.4 mN/m
surface tension liquid-gas (308.15 K, x1 = 0.9101): 27.1 ± 0.4 mN/m
surface tension liquid-gas (308.15 K, x1 = 1): 28.1 ± 0.4 mN/m
mass density (308.15 K, x1 = 0.1255): 789.47 ± 1.9 kg/m3
mass density (308.15 K, x1 = 0.2452): 786.3 ± 2 kg/m3
mass density (308.15 K, x1 = 0.3466): 783.62 ± 2 kg/m3
mass density (308.15 K, x1 = 0.4995): 779.56 ± 2 kg/m3
mass density (308.15 K, x1 = 0.6449): 775.71 ± 2 kg/m3
mass density (308.15 K, x1 = 0.7492): 772.95 ± 2 kg/m3
mass density (308.15 K, x1 = 0.8645): 769.89 ± 2 kg/m3
mass density (308.15 K, x1 = 0.9101): 768.68 ± 2.1 kg/m3
mass density (308.15 K, x1 = 1): 766.3 ± 2.1 kg/m3
surface tension liquid-gas (313.15 K, x1 = 0.1255): 22.4 ± 0.4 mN/m
surface tension liquid-gas (313.15 K, x1 = 0.2452): 22.7 ± 0.4 mN/m
surface tension liquid-gas (313.15 K, x1 = 0.3466): 23 ± 0.4 mN/m
surface tension liquid-gas (313.15 K, x1 = 0.4995): 23.8 ± 0.4 mN/m
surface tension liquid-gas (313.15 K, x1 = 0.6449): 24.6 ± 0.4 mN/m
surface tension liquid-gas (313.15 K, x1 = 0.7492): 25.4 ± 0.4 mN/m
surface tension liquid-gas (313.15 K, x1 = 0.8645): 26.3 ± 0.4 mN/m
surface tension liquid-gas (313.15 K, x1 = 0.9101): 26.8 ± 0.4 mN/m
surface tension liquid-gas (313.15 K, x1 = 1): 27.7 ± 0.4 mN/m
mass density (313.15 K, x1 = 0.1255): 783.74 ± 2 kg/m3
mass density (313.15 K, x1 = 0.2452): 780.62 ± 2 kg/m3
mass density (313.15 K, x1 = 0.3466): 777.99 ± 2 kg/m3
mass density (313.15 K, x1 = 0.4995): 774.01 ± 2 kg/m3
mass density (313.15 K, x1 = 0.6449): 770.23 ± 2 kg/m3
mass density (313.15 K, x1 = 0.7492): 767.52 ± 2.1 kg/m3
mass density (313.15 K, x1 = 0.8645): 764.52 ± 2.1 kg/m3
mass density (313.15 K, x1 = 0.9101): 763.34 ± 2.1 kg/m3
mass density (313.15 K, x1 = 1): 761 ± 2.1 kg/m3

Reference: the NIST ThermoML archive (doi:10.1007/s10765-009-0581-7)
